Data taken from ChEMBL document CHEMBL1147787, “Synthesis and preliminary antitumor activity evaluation of a DHA and doxorubicin conjugate” (Bioorg Med Chem Lett, 2006).
Activity calls are given as the source filed them. No cut-off for these calls is given here.

Experiments:
Mus musculus [1] = assay: Antitumor activity in BDF1 mouse bearing L1210 leukemia assessed as increase in life span at 5 ug/kg, ip relative to control; type: functional
L1210 = assay: Antitumor activity against mouse L1210 cell line assessed as inhibition of [3H]thymidine incorporation; type: functional, cell-based
Mus musculus [2] = assay: Antitumor activity in BDF1 mouse bearing L1210 leukemia assessed as survival for 30 days at 8 ug/kg, ip; type: functional, organism-based
Mus musculus [3] = assay: Antitumor activity in BDF1 mouse bearing L1210 leukemia assessed as survival for 30 days at 5 ug/kg, ip; type: functional, organism-based
Mus musculus [4] = assay: Antitumor activity in BDF1 mouse bearing L1210 leukemia assessed as loss of body weight at 8 ug/kg, ip; type: functional
Mus musculus [5] = assay: Antitumor activity in BDF1 mouse bearing L1210 leukemia assessed as loss of body weight at 5 ug/kg, ip; type: functional
Mus musculus [6] = assay: Antitumor activity in BDF1 mouse bearing B16 melanoma assessed as loss of body weight at 5 mg/kg, ip; type: functional; details: route intraperitoneal
Mus musculus [7] = assay: Antitumor activity in BDF1 mouse bearing B16 melanoma assessed as inhibition of tumor growth at 5 mg/kg, ip relative to control; type: functional; details: route intraperitoneal
Mus musculus [8] = assay: Antitumor activity in BDF1 mouse bearing L1210 leukemia assessed as survival for 30 days at 32 ug/kg, ip; type: functional, organism-based
Mus musculus [9] = assay: Antitumor activity in BDF1 mouse bearing B16 melanoma assessed as loss of body weight at 30 mg/kg, ip; type: functional; details: route intraperitoneal
Mus musculus [10] = assay: Antitumor activity in BDF1 mouse bearing L1210 leukemia assessed as loss of body weight at 32 ug/kg, ip; type: functional
Mus musculus [11] = assay: Antitumor activity in BDF1 mouse bearing L1210 leukemia assessed as loss of body weight at 16 ug/kg, ip; type: functional
Mus musculus [12] = assay: Antitumor activity in BDF1 mouse bearing L1210 leukemia assessed as increase in life span at 32 ug/kg, ip relative to control; type: functional
Mus musculus [13] = assay: Antitumor activity in BDF1 mouse bearing L1210 leukemia assessed as increase in life span at 16 ug/kg, ip relative to control; type: functional
Mus musculus [14] = assay: Antitumor activity in BDF1 mouse bearing L1210 leukemia assessed as increase in life span at 8 ug/kg, ip relative to control; type: functional
Mus musculus [15] = assay: Antitumor activity in BDF1 mouse bearing B16 melanoma assessed as loss of body weight at 20 mg/kg, ip; type: functional; details: route intraperitoneal
Mus musculus [16] = assay: Antitumor activity in BDF1 mouse bearing B16 melanoma assessed as inhibition of tumor growth at 30 mg/kg, ip relative to control; type: functional; details: route intraperitoneal
Mus musculus [17] = assay: Antitumor activity in BDF1 mouse bearing B16 melanoma assessed as inhibition of tumor growth at 20 mg/kg, ip relative to control; type: functional; details: route intraperitoneal

Row | SMILES | Activity (Mus musculus [1]) | IC50 (L1210) | Activity (Mus musculus [2]) | Activity (Mus musculus [3]) | Activity (Mus musculus [4]) | Activity (Mus musculus [5]) | Activity (Mus musculus [6]) | inhibition in vivo at 5 mg/kg (Mus musculus [7]) | Activity (Mus musculus [8]) | Activity (Mus musculus [9]) | Activity (Mus musculus [10]) | Activity (Mus musculus [11]) | Activity (Mus musculus [12]) | Activity (Mus musculus [13]) | Activity (Mus musculus [14]) | Activity (Mus musculus [15]) | inhibition in vivo at 30 mg/kg (Mus musculus [16]) | inhibition in vivo at 20 mg/kg (Mus musculus [17])
1 | COc1cccc2c1C(=O)c1c(O)c3c(c(O)c1C2=O)C[C@@](O)(C(=O)CO)C[C@@H]3O[C@H]1C[C@H](N)[C@H](O)[C@H](C)O1 [DOXORUBICIN] | 53% | 150 nM | inactive | inactive | -19% | -7% | -10% | 35% |  |  |  |  |  |  |  |  |  | 
2 | CC/C=C/C/C=C/C/C=C/C/C=C/C/C=C/C/C=C/CCC(=O)N/N=C(\CO)[C@]1(O)Cc2c(O)c3c(c(O)c2[C@@H](OC2C[C@H](N)[C@H](O)[C@H](C)O2)C1)C(=O)c1c(OC)cccc1C3=O.Cl (stereo partly specified) |  | 1400 nM | inactive |  | -2% |  |  |  | inactive | -6% | -11% | -4% | 80% | 107% | 53% | -6% | 70% | 53%
